Like-named read-outs stand apart in the source and are kept apart here.
Key:
A. thaliana DHDPS = tested on: T1, A. thaliana DHDPS; test: DHDPS-DHDPR coupled assay, dose response inhibitor assay; assay type: biochemical, Arabidopsis thaliana
T1 construct: AtDHDPS|10|0.00008; no borders, domain or tags given

[1] = tested on: Acinetobacter baumannii AYE; test: Broth microdilution MIC; assay type: cell-based
Procedure: (§1) Assays were carried out by a broth microdilution method using a 96-well plate according to guidelines defined by the European Committee on Antimicrobial Susceptibility Testing as described here. Overnight cultures of strains were grown in tryptic soy broth (TSB) at 37° C. The overnight cultures were diluted to a concentration of 1×10^6 bacteria/ml (OD600=0.01) in TSB media. To each well on 96 well plates, 100 μl of bacterially infected media at a concentration of 1×10^6/ml and compounds at various concentrations were added. An uninfected control (i.e. no bacteria) was also included. The plates were incubated at 37° C. wrapped in parafilm for 20 hrs. The growth was assessed by measuring the absorbance at 600 nm. The minimum inhibitory concentration (MIC) was determined to be the lowest concentration of compound that inhibits visible bacterial growth.

EMRSA-16 = test: Broth microdilution MIC; assay type: cell-based
Procedure: as §1

[2] = tested on: Enterococcus faecalis 775; test: Broth microdilution MIC; assay type: cell-based
Procedure: as §1

[3] = tested on: Klebsiella pneumoniae 13368; test: Broth microdilution MIC; assay type: cell-based
Procedure: as §1

Klebsiella pneumoniae M6 = test: Broth microdilution MIC; assay type: cell-based
Procedure: as §1

MSSA 9144 = test: Broth microdilution MIC; assay type: cell-based; settings: Staphylococcus aureus
Procedure: as §1

[4] = tested on: Pseudomonas aeruginosa 13437; test: Broth microdilution MIC; assay type: cell-based
Procedure: as §1

[5] = tested on: human kidney cells (HEK293); test: MTT viability assay; settings: for % Viability Remaining 1 / % Viability Remaining 2 / % Viability Remaining 3: 48 hrs; for toxicity to HEK293 cells (in words): HEK293, MTT, up to 400 μM (Defensin 100 μM)
Procedure: (§2) Cells were harvested and resuspended in growth media (5-10 ml) to count. Cells were diluted to the appropriate concentration (5×10^3), and seeded into 96-well plates as follows: (a) 50 μl of cells per well, (b) 100 μl of growth media in the Blank wells, (c) 100 μl PBS in outer wells (to prevent dehydration of media from the cells). Cells were incubated overnight at 37° C. (5% CO2).
(§3) Compounds were prepared as serial dilutions in growth media. Each treatment concentration was performed in triplicate. 50 μl/well of prepared compound was added to cells.
(§4) A no treatment triplicate (100% viability) was also included by adding 50 μl of growth media to cells. Plates were returned to the incubator for 48 hrs.
(§5) MTT powder in 1×PBS was prepared at 5 mg/ml and filter sterilised. MTT was added to serum-free media to a final concentration of 1 mg/ml. 100 μl of the MTT solution (1 mg/ml) was added to each well, including 0 μM and blank wells. Plates were incubated at 37° C. in incubator for 3 hrs. Following incubation, the media was removed from wells without disrupting the purple crystals formed. 100 μl of DMSO was added to each well using a multichannel pipette. The plates were shaken on the plate shaker until all the crystals have dissolved. The absorbance was measured at 570 nm using a plate reader. The data was analysed using Microsoft Excel. For each treatment concentration the average was calculated, the blank was subtracted and the cell viability was determined as a percentage of the no treatment control (DMSO vehicle control).

[6] = tested on: human liver cells (HepG2); test: MTT viability assay; settings: for % viability 1 / % viability 2 / % viability 3: 48 hrs; for toxicity to HepG2 cells (in words): HepG2, MTT, up to 400 μM (Defensin 100 μM)
Procedure: as §2, §3, §4, §5

[7] = EMRSA-16, replicate 1, read-out: MIC #1
[8] = EMRSA-16, replicate 2, read-out: MIC #2
[9] = EMRSA-16, replicate 3, read-out: MIC #3
[10] = Enterococcus faecalis 775, replicate 1, read-out: MIC #1
[11] = Enterococcus faecalis 775, replicate 2, read-out: MIC #2
[12] = Enterococcus faecalis 775, replicate 3, read-out: MIC #3
[13] = Klebsiella pneumoniae 13368, replicate 1, read-out: MIC #1
[14] = Klebsiella pneumoniae 13368, replicate 2, read-out: MIC #2
[15] = Klebsiella pneumoniae 13368, replicate 3, read-out: MIC #3
[16] = Klebsiella pneumoniae M6, replicate 1, read-out: MIC #1
[17] = Klebsiella pneumoniae M6, replicate 2, read-out: MIC #2
[18] = Klebsiella pneumoniae M6, replicate 3, read-out: MIC #3
[19] = MSSA 9144, replicate 1, read-out: MIC #1
[20] = MSSA 9144, replicate 2, read-out: MIC #2
[21] = MSSA 9144, replicate 3, read-out: MIC #3
[22] = Pseudomonas aeruginosa 13437, replicate 1, read-out: MIC #1
[23] = Pseudomonas aeruginosa 13437, replicate 2, read-out: MIC #2
[24] = Pseudomonas aeruginosa 13437, replicate 3, read-out: MIC #3

## COc1ccccc1/C=C1\SC(=O)N(CC(=O)O)C1=O [Compound 3, (Z)-2-(5-(2-Methoxybenzylidene)-2,4-dioxothiazolidin-3-yl)acetic Acid]
A. thaliana DHDPS
  IC50: 70.5 µM
[1]; replicate 1, read-out: MIC #1
  MIC: > 64 µg/mL
[1]; replicate 2, read-out: MIC #2
  MIC: > 64 µg/mL
[1]; replicate 3, read-out: MIC #3
  MIC: > 64 µg/mL
EMRSA-16; [7]
  MIC: > 64 µg/mL
EMRSA-16; [8]
  MIC: > 64 µg/mL
EMRSA-16; [9]
  MIC: > 64 µg/mL
[2]; [10]
  MIC: > 64 µg/mL
[2]; [11]
  MIC: > 64 µg/mL
[2]; [12]
  MIC: > 64 µg/mL
[3]; [13]
  MIC: > 64 µg/mL
[3]; [14]
  MIC: > 64 µg/mL
[3]; [15]
  MIC: > 64 µg/mL
Klebsiella pneumoniae M6; [16]
  MIC: > 64 µg/mL
Klebsiella pneumoniae M6; [17]
  MIC: > 64 µg/mL
Klebsiella pneumoniae M6; [18]
  MIC: > 64 µg/mL
MSSA 9144; [19]
  MIC: > 64 µg/mL
MSSA 9144; [20]
  MIC: > 64 µg/mL
MSSA 9144; [21]
  MIC: > 64 µg/mL
[4]; [22]
  MIC: > 64 µg/mL
[4]; [23]
  MIC: > 64 µg/mL
[4]; [24]
  MIC: > 64 µg/mL
[5]; HEK293, 12.5 μM
  % Viability Remaining 1: 73.4%
  % Viability Remaining 2: 104%
  % Viability Remaining 3: 99.0%
[5]; HEK293, 25 μM
  % Viability Remaining 1: 100%
  % Viability Remaining 2: 86.3%
  % Viability Remaining 3: 83.8%
[5]; HEK293, 50 μM
  % Viability Remaining 1: 78.5%
  % Viability Remaining 2: 80.4%
  % Viability Remaining 3: 92.2%
[5]; HEK293, 100 μM
  % Viability Remaining 1: 84.2%
  % Viability Remaining 2: 93.0%
  % Viability Remaining 3: 91.6%
[5]; HEK293, 200 μM
  % Viability Remaining 1: 82.5%
  % Viability Remaining 2: 89.8%
  % Viability Remaining 3: 94.3%
[5]; HEK293, 400 μM
  % Viability Remaining 1: 72.3%
  % Viability Remaining 2: 106%
  % Viability Remaining 3: 85.6%
[5]
  toxicity to HEK293 cells (in words): effectively nontoxic
[6]; HepG2, 12.5 μM
  % viability 1: 110%
  % viability 2: 104%
  % viability 3: 92.2%
[6]; HepG2, 25 μM
  % viability 1: 80.2%
  % viability 2: 86.4%
  % viability 3: 91.4%
[6]; HepG2, 50 μM
  % viability 1: 106.4%
  % viability 2: 89.9%
  % viability 3: 98.7%
[6]; HepG2, 100 μM
  % viability 1: 80.2%
  % viability 2: 89.3%
  % viability 3: 82.2%
[6]; HepG2, 200 μM
  % viability 1: 84.2%
  % viability 2: 96.5%
  % viability 3: 92.9%
[6]; HepG2, 400 μM
  % viability 1: 76.2%
  % viability 2: 87.9%
  % viability 3: 87.5%
[6]
  toxicity to HepG2 cells (in words): effectively nontoxic

## COc1ccc(/C=C2\SC(=O)N(CC(=O)O)C2=O)cc1 [Compound 5, (Z)-2-(5-(4-Methoxybenzylidene)-2,4-dioxothiazolidin-3-yl)acetic Acid]
A. thaliana DHDPS
  IC50: 46.9 µM
[1]; replicate 1, read-out: MIC #1
  MIC: > 64 µg/mL
[1]; replicate 2, read-out: MIC #2
  MIC: > 64 µg/mL
[1]; replicate 3, read-out: MIC #3
  MIC: > 64 µg/mL
EMRSA-16; [7]
  MIC: > 64 µg/mL
EMRSA-16; [8]
  MIC: > 64 µg/mL
EMRSA-16; [9]
  MIC: > 64 µg/mL
[2]; [10]
  MIC: > 64 µg/mL
[2]; [11]
  MIC: > 64 µg/mL
[2]; [12]
  MIC: > 64 µg/mL
[3]; [13]
  MIC: > 64 µg/mL
[3]; [14]
  MIC: > 64 µg/mL
[3]; [15]
  MIC: > 64 µg/mL
Klebsiella pneumoniae M6; [16]
  MIC: > 64 µg/mL
Klebsiella pneumoniae M6; [17]
  MIC: > 64 µg/mL
Klebsiella pneumoniae M6; [18]
  MIC: > 64 µg/mL
MSSA 9144; [19]
  MIC: > 64 µg/mL
MSSA 9144; [20]
  MIC: > 64 µg/mL
MSSA 9144; [21]
  MIC: > 64 µg/mL
[4]; [22]
  MIC: > 64 µg/mL
[4]; [23]
  MIC: > 64 µg/mL
[4]; [24]
  MIC: > 64 µg/mL
[5]; HEK293, 12.5 μM
  % Viability Remaining 1: 105%
  % Viability Remaining 2: 103%
  % Viability Remaining 3: 85.0%
[5]; HEK293, 25 μM
  % Viability Remaining 1: 105%
  % Viability Remaining 2: 103%
  % Viability Remaining 3: 85.0%
[5]; HEK293, 50 μM
  % Viability Remaining 1: 92.3%
  % Viability Remaining 2: 101%
  % Viability Remaining 3: 90.8%
[5]; HEK293, 100 μM
  % Viability Remaining 1: 106%
  % Viability Remaining 2: 103%
  % Viability Remaining 3: 82.8%
[5]; HEK293, 200 μM
  % Viability Remaining 1: 82.7%
  % Viability Remaining 2: 86.0%
  % Viability Remaining 3: 84.9%
[5]; HEK293, 400 μM
  % Viability Remaining 1: 96.4%
  % Viability Remaining 2: 91.3%
  % Viability Remaining 3: 89.1%
[5]
  toxicity to HEK293 cells (in words): effectively nontoxic
[6]; HepG2, 12.5 μM
  % viability 1: 111%
  % viability 2: 107%
  % viability 3: 105%
[6]; HepG2, 25 μM
  % viability 1: 111%
  % viability 2: 106%
  % viability 3: 105%
[6]; HepG2, 50 μM
  % viability 1: 102%
  % viability 2: 91.9%
  % viability 3: 104%
[6]; HepG2, 100 μM
  % viability 1: 111%
  % viability 2: 105%
  % viability 3: 84.8%
[6]; HepG2, 200 μM
  % viability 1: 78.7%
  % viability 2: 110%
  % viability 3: 94.4%
[6]; HepG2, 400 μM
  % viability 1: 82.1%
  % viability 2: 84.9%
  % viability 3: 92.5%
[6]
  toxicity to HepG2 cells (in words): effectively nontoxic

From US20200068890A1 (Person to Whom the Inventor is Obligated to Assign, priority 2017, published 2020)
